Results taken from US4426519A, “7-(2-Amino-4-thiazolyl)-acetamido cephalosporanic acids” (Roussel Uclaf, priority 1979, dated 1984).
Where a name gives a salt, the structure may show the parent alone. Read-outs that look alike come from different tables or passages of the source.

What was measured:
[1] = system: Bacillus subtilis ATCC 6 633; test: MIC, dilution in liquid medium; assay type: cell-based
Method: (§1) The method used was a dilution of a liquid medium where a series of tubes received the same quantity of a sterile nutritive media and increasing doses of the test compounds were placed therein. Then each tube was seeded with a bacterial strain and was incubated for 24 to 48 hours at 37° C. in an oven. The increasing inhibition was determined by transillulumination to determine the minimum inhibiting concentration (MIC in μg/ml) and the results are reported in the following Tables.

Enterobacter cloacae 681 = test: MIC, dilution in liquid medium; assay type: cell-based
Method: as §1

[2] = system: Escherichia Coli Resistant Gentamycine, Tobramycine R 55 123 D; test: MIC, dilution in liquid medium; assay type: cell-based; conditions: read-out: MIC
Method: as §1

[3] = system: Escherichia Coli Resistant Tetracycline ATCC 11 303; test: MIC, dilution in liquid medium; assay type: cell-based
Method: as §1

[4] = system: Escherichia Coli sensitive Tetracycline ATCC 9 637; test: MIC, dilution in liquid medium; assay type: cell-based
Method: as §1

[5] = system: Klebsiella pneumoniae 2 536 Resistant Gentamycine; test: MIC, dilution in liquid medium; assay type: cell-based
Method: as §1

[6] = system: Klebsiella pneumoniae Exp. 52 145; test: MIC, dilution in liquid medium; assay type: cell-based; conditions: read-out: MIC
Method: as §1

[7] = system: Proteus mirabilis (indol-) A 235; test: MIC, dilution in liquid medium; assay type: cell-based
Method: as §1

Providencia Du 48 = test: MIC, dilution in liquid medium; assay type: cell-based
Method: as §1

[8] = system: Pseudomonas 8951 Resistant Gentamycine Tetracycline; test: MIC, dilution in liquid medium; assay type: cell-based
Method: as §1

[9] = system: Salmonella typhimurium 420; test: MIC, dilution in liquid medium; assay type: cell-based; conditions: Salmonella enterica, read-out: MIC
Method: as §1

[10] = system: Serratia Resistant Gentamycine 2 532; test: MIC, dilution in liquid medium; assay type: cell-based; conditions: read-out: MIC
Method: as §1

[11] = system: Staphylococcus aureus ATCC 6 538 Pen Sensitive; test: MIC, dilution in liquid medium; assay type: cell-based
Method: as §1

[12] = system: Staphylococcus aureus UC 1 128 Pen-resistant; test: MIC, dilution in liquid medium; assay type: cell-based
Method: as §1

[13] = system: Staphylococcus aureus exp.n°54 146; test: MIC, dilution in liquid medium; assay type: cell-based
Method: as §1

[14] = system: Streptococcus pyogenes A 561; test: MIC, dilution in liquid medium; assay type: cell-based
Method: as §1

Escherichia coli TO26 B6 = test: Experimental infection with Escherichia coli TO26 B6 in mice; assay type: in vivo; conditions: for No. of mice surviving 8th day: subcutaneous 1, 5 and 24 hours after infection, control 0/10; for Mortality after hours: subcutaneous, group of 10 mice
Method: The product of Example 1 was studied for its activity against an experimental infection of Escherichia coil in groups of 10 male mice weighing about 21.5 g. The mice received an intraperitoneal injection of 0.5 ml of a 24 hour old culture in a nutritive media of Escherichia Coli TO26 B6 of the Pasteur Institute diluted 1/5 with distilled water. The test product was administered subcutaneously 1 hour and 5 and 24 hours after the infection and the number of dead was determined after 8 days.

Proteus mirabilis A 235 = test: Experimental infection of Proteus mirabilis in mice; assay type: in vivo; conditions: for Mice surviving on 8th day: subcutaneous 1, 5 and 24 hours after infection, controls 0/10; for Mortality after hours: subcutaneous, group of 10 mice
Method: Groups of 10 mice with an average weight of 21.5 g received intraperitoneally 0.5 ml of a 24 hour old culture in oxoid bouillon of Proteus mirabilis A 235 diluted 1/10 with distilled water. The mice then received subcutaneously the compound of Example 1 one hour and 5 and 24 hours after the infection and the results are reported in the following Table.

Proteus Morganii A236 = test: Experimental infection of Proteus Morganii A236 in mice; assay type: in vivo; conditions: for Mice surviving on 8th day: cutaneously 1,5 and 24 hours after injection, controls 0/10; for Mortality after hours: cutaneously, group of 10 mice
Method: The activity of the product of Example 1 against an experimental infection of Proteus Morganii […] was determined in groups of 10 mice weighing an average of 20.5 g which were infected by intraperitoneal injection of 0.5 ml of a culture thereof in a medium with a pH of 7 diluted to one tenth.

[15] = system: Klebsiella Pneumonia No. 52,145; test: Experimental infection of Klebsiella Pneumoniae in mice; assay type: in vivo; conditions: for Mice surviving on 8th day: by injection 1,5 and 24 hours after infection, controls 0/10; for Mortality after hours: by injection, group of 10 mice
Method: The activity of the compound of Example 1 against an experimental infection of Klebsiella Pneumonia No. 52,145 was determined on groups of 10 mice having an average weight of 21 g by intraperitoneal injection of 0.5 ml of a culture thereof with a pH of 6 diluted to 1/1500.

## CC(=O)OCC1=C(C(=O)O)N2C(=O)C(NC(=O)/C(=N\OCCSC(=N)N)c3csc(N)n3)C2SC1 (stereo not drawn) [Example 1, Trifluoroacetate of the syn isomer of 3-acetoxymethyl-7-[2-(2-amino-4-thiazolyl)-2-(2-aminoiminomethylthio-ethoxyimino)acetamido]-ceph-3-eme-4-carboxylic acid]
[1]; ATCC6, 24 h
  MIC: 1 µg/mL
[1]; ATCC6, 48 h
  MIC: 1 µg/mL
Enterobacter cloacae 681; Enterobacter cloacae, 681, 24 h
  MIC: 2 µg/mL
Enterobacter cloacae 681; Enterobacter cloacae, 681, 48 h
  MIC: 2 µg/mL
[2]; 24 h
  MIC: 0.5 µg/mL
[2]; 48 h
  MIC: 0.5 µg/mL
[3]; ATCC11, 24 h
  MIC: 0.05 µg/mL
[3]; ATCC11, 48 h
  MIC: 0.05 µg/mL
[4]; ATCC9, 24 h
  MIC: 1 µg/mL
[4]; ATCC9, 48 h
  MIC: 1 µg/mL
[5]; 24 h
  MIC: 1 µg/mL
[5]; 48 h
  MIC: 2 µg/mL
[6]; EXP.52145, 24 h
  MIC: 0.5 µg/mL
[6]; EXP.52145, 48 h
  MIC: 0.5 µg/mL
[7]; 24 h
  MIC: 0.1 µg/mL
[7]; 48 h
  MIC: 0.1 µg/mL
Providencia Du 48; DU48, 24 h
  MIC: 2 µg/mL
Providencia Du 48; DU48, 48 h
  MIC: 3 µg/mL
[8]; 24 h
  MIC: 20 µg/mL
[8]; 48 h
  MIC: 20 µg/mL
[9]; 24 h
  MIC: 0.5 µg/mL
[9]; 48 h
  MIC: 0.5 µg/mL
[10]; 24 h
  MIC: 0.5 µg/mL
[10]; 48 h
  MIC: 0.5 µg/mL
[11]; ATCC6, 24 h
  MIC: 2 µg/mL
[11]; ATCC6, 48 h
  MIC: 2 µg/mL
[12]; UC1, 24 h
  MIC: 2 µg/mL
[12]; UC1, 48 h
  MIC: 3 µg/mL
[13]; 24 h
  MIC: 2 µg/mL
[13]; 48 h
  MIC: 2 µg/mL
[14]; A561, 24 h
  MIC: 0.02 µg/mL
[14]; A561, 48 h
  MIC: 0.02 µg/mL
Escherichia coli TO26 B6; dose 0.1 mg
  No. of mice surviving 8th day: 6/10
Escherichia coli TO26 B6; dose 0.1 mg, 21H30
  Mortality after hours: 1
Escherichia coli TO26 B6; dose 0.1 mg, 24 H
  Mortality after hours: 1
Escherichia coli TO26 B6; dose 0.1 mg, 28 H
  Mortality after hours: 1
Escherichia coli TO26 B6; dose 0.1 mg, 36 H
  Mortality after hours: 1
Escherichia coli TO26 B6; dose 0.25 mg
  No. of mice surviving 8th day: 10/10
Proteus mirabilis A 235; dose 0,1 mg
  Mice surviving on 8th day: 10/10
Proteus mirabilis A 235; dose 0,05 mg
  Mice surviving on 8th day: 10/10
Proteus mirabilis A 235; dose 0,5 mg
  Mice surviving on 8th day: 10/10
Proteus mirabilis A 235; dose 0,25 mg
  Mice surviving on 8th day: 10/10
Proteus mirabilis A 235; dose 0,025 mg
  Mice surviving on 8th day: 7/10
Proteus mirabilis A 235; dose 0,025 mg, 23H45
  Mortality after hours: 1
Proteus mirabilis A 235; dose 0,025 mg, 25 H
  Mortality after hours: 1
Proteus mirabilis A 235; dose 0,025 mg, 31 H
  Mortality after hours: 1
Proteus Morganii A236; dose 0,1 mg
  Mice surviving on 8th day: 10/10
Proteus Morganii A236; dose 0,05 mg
  Mice surviving on 8th day: 2/10
Proteus Morganii A236; dose 0,5 mg
  Mice surviving on 8th day: 10/10
Proteus Morganii A236; dose 0,05 mg, 4H
  Mortality after hours: 1
Proteus Morganii A236; dose 0,05 mg, 6H15
  Mortality after hours: 1
Proteus Morganii A236; dose 0,05 mg, 6H
  Mortality after hours: 2
Proteus Morganii A236; dose 0,05 mg, 21H10
  Mortality after hours: 3
Proteus Morganii A236; dose 0,05 mg, 45H20
  Mortality after hours: 1
Proteus Morganii A236; dose 0,25 mg
  Mice surviving on 8th day: 10/10
[15]; dose 0,1 mg
  Mice surviving on 8th day: 6/10
[15]; dose 0,1 mg, 4 J
  Mortality after hours: 1
[15]; dose 0,1 mg, 5 J
  Mortality after hours: 1
[15]; dose 0,1 mg, 6 J
  Mortality after hours: 1
[15]; dose 0,1 mg, 8 J
  Mortality after hours: 1
[15]; dose 0,5 mg
  Mice surviving on 8th day: 9/10
[15]; dose 0,5 mg, 6 J
  Mortality after hours: 1
[15]; dose 0,25 mg
  Mice surviving on 8th day: 8/10
[15]; dose 0,25 mg, 4 J
  Mortality after hours: 1
[15]; dose 0,25 mg, 6 J
  Mortality after hours: 1
[15]; dose 1 mg
  Mice surviving on 8th day: 10/10
[15]; dose 1,5 mg
  Mice surviving on 8th day: 10/10
